Positions of bridges follow the written chain, without caps; N, C: chain ends. Residues, ends and D or L forms follow the SMILES beside them. Chains are numbered I, II in the order given.
Legend:
[1] = heat treatment (sterilization) of solutions; cited from earlier work
[2] = water solubility of the novel cystine compounds; assay type: physicochemical
Protocol: (§1) 0.5 g bis-(acetylglycyl)-L,L-cystine are dissolved in 50 ml distilled water. The pH is adjusted to 6.5 by the addition of a 1N sodium hydrogen carbonate solution and then diluted with distilled water to a volume of 100 ml. Of this solution, an HPLC chromatogram is made immediately. The solution is then heated on a boiling water bath.

[3] = heat sterilization stability of the novel cystine compounds; assay type: physicochemical; details: for instance heating to 120° C. for 5 minutes
Protocol: So, for instance, infusion solutions are prepared by dissolving the purified peptide and the desired amino acid in distilled water. Mineral salts and other substances may further be added to these solutions. Prior to administration, they must be isotonically adjusted. Up to now, it has not been possible to sterilize such solutions in the usual manner (5 minutes, 120° C., pH 5.5 to 7.5) without the decomposition of the cystine-containing component. The novel peptides according to the invention permit a heat treatment of the above-mentioned infusion solution without the decomposition of the cystine derivative.

[4] = Testing of the water solubility and thermal stability of bis-(acetylglycyl)-L,L-cystine (HPLC after heating on boiling water bath); assay type: physicochemical; details: 0.5 g in 100 ml water, pH 6.5, boiling water bath, after 10, 20 and 30 minutes of heating
Protocol: as §1

SMILES | resistance to heat treatment / thermal stability [1] | solubility in water [2] | stability to heat sterilization [3] | change of HPLC chromatogram after heating [4]
N[C@@H](CSSC[C@H](N)C(=O)O)C(=O)O [L,L-cystine] | stable against heat treatment |  |  | 
N[C@@H](CS)C(=O)O [L-cysteine] | not resistant to heat treatment |  |  | 
CC(=O)NCC(=O)N[C@@H](CSSC[C@H](NC(=O)CNC(C)=O)C(=O)O)C(=O)O [bis-(acetylglycyl)-L,L-cystine] (I: Ac-Gly-Cys-OH / II: Ac-Gly-Cys-OH; disulfide I:2-II:2) |  | well soluble in water | stable enough to be heat-sterilizable | does not show any essential changes

From patent US4801579A, “Novel cystine compounds, their preparation and use” (Bleiberger Bergwerks Union, priority 1986, dated 1989)
